Test results published in article PMC12310023 (PLOS Neglected Tropical Diseases, 2025).
Several values for one entry are separate records, joined by “and”; a condition that tells them apart may be missing. Equal values may be shown once.

Legend:
[1] = system: HEK293T; assay: 72H HEK293T Cytotoxicity; assay type: cell-based
[2] = system: C. parvum Bunch Grass Farms isolate; assay: Calibr high-content imaging Cryptosporidium panel; assay type: cell-based, Cryptosporidium parvum; conditions: Calibr Crypto Panel 2
[3] = system: C. hominis TU502 isolate; assay: Calibr high-content imaging Cryptosporidium panel; assay type: cell-based, Cryptosporidium hominis
[4] = system: C. parvum Zambriski Laboratory isolate; assay: Calibr high-content imaging Cryptosporidium panel; assay type: cell-based, Cryptosporidium parvum; conditions: Calibr Crypto Panel 2
[5] = system: C. parvum U AZ Laboratory isolate; assay: microbe, parasite or virus in culture; assay type: cell-based, Cryptosporidium parvum
[6] = system: HCT-8 cells; assay: HCT-8 host cell count (Calibr); conditions: read-out: HCT-8 Cell Count CC50; host cells infected with Sterling oocysts
[7] = system: A-375, Hs294T, MEWO, and Colo678 carcinoma cell lines
[8] = Mouse plasma, brain and GI exposure PK, Balb/c, 30 mg/kg PO; conditions: Brains, 0.5 hr, individual samples
[9] = system: NLuc-expressing C. parvum; assay: NLuc C. parvum IFNγ-KO mouse infection model, oocyst shedding; assay type: in vivo
[10] = target: T1, 5-HT2B (Homo sapiens, UniProt P41595); assay: Cerep binding assay; conditions: agonist radioligand, mean, read-out: % inhibition of control specific binding
T1 construct: Cerep (Eurofins, France)
T1 sequence (P41595 whole entry): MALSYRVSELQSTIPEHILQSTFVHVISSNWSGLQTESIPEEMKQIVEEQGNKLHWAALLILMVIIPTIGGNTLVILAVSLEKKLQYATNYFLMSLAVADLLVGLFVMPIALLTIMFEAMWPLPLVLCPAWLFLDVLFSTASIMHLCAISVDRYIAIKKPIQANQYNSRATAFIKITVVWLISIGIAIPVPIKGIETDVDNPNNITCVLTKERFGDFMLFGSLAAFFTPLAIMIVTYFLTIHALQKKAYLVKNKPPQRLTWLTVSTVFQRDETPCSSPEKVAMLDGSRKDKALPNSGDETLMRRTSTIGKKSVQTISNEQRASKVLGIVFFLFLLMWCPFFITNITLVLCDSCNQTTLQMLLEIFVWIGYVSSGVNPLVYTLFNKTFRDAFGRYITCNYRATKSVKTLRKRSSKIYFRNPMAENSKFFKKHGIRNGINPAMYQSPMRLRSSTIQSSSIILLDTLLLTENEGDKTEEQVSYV

[11] = system: NLuc C. parvum; set-up: method as in PMID 30830766; conditions: cited from earlier work
[12] = cited from earlier work
[13] = system: NLuc-expressing C. parvum; set-up: method as in PMID 30830766; conditions: 8 mg/kg QD x 5 PO, 20 days p.i.; cited from earlier work
[14] = dog, in vivo
[15] = system: C. parvum; conditions: bovine, in vivo
[16] = system: micronuclei in interphase cells; assay: In vitro micronucleus (IVMN) test
[17] = female, Balb/c, mouse, in vivo

CCOc1ccc2cc(-c3nn(CC4CCN(C)CC4)c4ncnc(N)c34)ccc2c1 [BKI-1294]
CC50 [1]: 22.2 µM
EC50 ([2]; read-out: Bunch Grass Farm C. parvum Spot Count EC50): 2.02 µM
EC90 ([2]; read-out: Bunch Grass Farm C. parvum Spot Count EC90): 5.44 µM
EC50 ([3]; Calibr Crypto Panel 2, 2018-07-02, read-out: C. hominis Spot Count EC50): 2.82 µM
EC90 ([3]; Calibr Crypto Panel 2, read-out: C. hominis Spot Count EC90): 14.8 µM
EC50 ([4]; read-out: Wild C. parvum Spot Count EC50): 0.337 µM
EC90 ([4]; read-out: Wild C. parvum Spot Count EC90): 27.3 µM
EC50 ([5]; Calibr Crypto Panel 2, 2018-06-18, read-out: Sterling Lab C. parvum Spot Count EC50): 0.468 µM
EC90 ([5]; Calibr Crypto Panel 2, read-out: Sterling Lab C. parvum Spot Count EC90): 8.29 µM
CC50 [6]: > 25 µM

CC(=O)Nc1cccc(-n2c(=O)n(C3CC3)c(=O)c3c(Nc4ccc(I)cc4F)n(C)c(=O)c(C)c32)c1 [Trametinib]
inhibitory concentration in MEK1 proliferation-dependent cell lines [7]: 7 to 60 nM

CC1(C)Cn2nc(-c3ccc4cc(OC5CC5)ccc4c3)c(C(N)=O)c2NC1O (stereo not shown) [compound 1862]
Brains concentration [8]: 0.0641 µM
RLU Raw ([9]; 8 mg/kg x 3 d, Day 6): 1384352 RLU
RLU Raw ([9]; 8 mg/kg x 3 d, Day 7): 821824 RLU
RLU Raw ([9]; 8 mg/kg x 3 d, Day 8): 1485152 RLU
RLU Raw ([9]; 8 mg/kg x 3 d, Day 9): 162144 RLU
RLU Raw ([9]; 8 mg/kg x 3 d, Day 10): 41552 RLU
RLU Raw ([9]; 8 mg/kg x 3 d, Day 13): 6176 RLU
RLU Raw ([9]; 8 mg/kg x 3 d, Day 15): 4992 RLU
RLU Raw ([9]; 8 mg/kg x 3 d, Day 17): 608 RLU
RLU Raw ([9]; 8 mg/kg x 3 d, Day 20): 1296 RLU
RLU standardized by fecal weight (Normalized) ([9]; 8 mg/kg x 3 d, day 6 p.i.): 226943 RLU
RLU standardized by fecal weight (Normalized) ([9]; 8 mg/kg x 3 d, day 7 p.i.): 75397 RLU
RLU standardized by fecal weight (Normalized) ([9]; 8 mg/kg x 3 d, day 8 p.i.): 146320 RLU
RLU standardized by fecal weight (Normalized) ([9]; 8 mg/kg x 3 d, day 9 p.i.): 15516 RLU
RLU standardized by fecal weight (Normalized) ([9]; 8 mg/kg x 3 d, day 10 p.i.): 4240 RLU
RLU standardized by fecal weight (Normalized) ([9]; 8 mg/kg x 3 d, day 13 p.i.): 468 RLU
RLU standardized by fecal weight (Normalized) ([9]; 8 mg/kg x 3 d, day 15 p.i.): 409 RLU
RLU standardized by fecal weight (Normalized) ([9]; 8 mg/kg x 3 d, day 17 p.i.): 61 RLU
RLU standardized by fecal weight (Normalized) ([9]; 8 mg/kg x 3 d, day 20 p.i.): 214 RLU
RLU Raw ([9]; 15 mg/kg x 3 d, Day 6): 1490624 RLU
RLU Raw ([9]; 15 mg/kg x 3 d, Day 7): 876560 RLU
RLU Raw ([9]; 15 mg/kg x 3 d, Day 8): 670544 RLU
RLU Raw ([9]; 15 mg/kg x 3 d, Day 9): 9856 RLU
RLU Raw ([9]; 15 mg/kg x 3 d, Day 10): 2928 RLU
RLU Raw ([9]; 15 mg/kg x 3 d, Day 13): 512 RLU
RLU Raw ([9]; 15 mg/kg x 3 d, Day 15): 400 RLU
RLU Raw ([9]; 15 mg/kg x 3 d, Day 17): 288 RLU
RLU Raw ([9]; 15 mg/kg x 3 d, Day 20): 192 RLU
RLU standardized by fecal weight (Normalized) ([9]; 15 mg/kg x 3 d, day 6 p.i.): 200084 RLU
RLU standardized by fecal weight (Normalized) ([9]; 15 mg/kg x 3 d, day 7 p.i.): 110259 RLU
RLU standardized by fecal weight (Normalized) ([9]; 15 mg/kg x 3 d, day 8 p.i.): 111757 RLU
RLU standardized by fecal weight (Normalized) ([9]; 15 mg/kg x 3 d, day 9 p.i.): 1398 RLU
RLU standardized by fecal weight (Normalized) ([9]; 15 mg/kg x 3 d, day 10 p.i.): 284 RLU
RLU standardized by fecal weight (Normalized) ([9]; 15 mg/kg x 3 d, day 13 p.i.): 37 RLU
RLU standardized by fecal weight (Normalized) ([9]; 15 mg/kg x 3 d, day 15 p.i.): 29 RLU
RLU standardized by fecal weight (Normalized) ([9]; 15 mg/kg x 3 d, day 17 p.i.): 32 RLU
RLU standardized by fecal weight (Normalized) ([9]; 15 mg/kg x 3 d, day 20 p.i.): 66 RLU
RLU Raw ([9]; 30 mg/kg x 3 d, Day 6): 1093968 RLU
RLU Raw ([9]; 30 mg/kg x 3 d, Day 7): 650000 RLU
RLU Raw ([9]; 30 mg/kg x 3 d, Day 8): 37104 RLU
RLU Raw ([9]; 30 mg/kg x 3 d, Day 9): 1536 RLU
RLU Raw ([9]; 30 mg/kg x 3 d, Day 10): 336 RLU
RLU Raw ([9]; 30 mg/kg x 3 d, Day 13): 208 RLU
RLU Raw ([9]; 30 mg/kg x 3 d, Day 15): 240 RLU
RLU Raw ([9]; 30 mg/kg x 3 d, Day 17): 2640 RLU
RLU Raw ([9]; 30 mg/kg x 3 d, Day 20): 192 RLU
RLU standardized by fecal weight (Normalized) ([9]; 30 mg/kg x 3 d, day 6 p.i.): 163279 RLU
RLU standardized by fecal weight (Normalized) ([9]; 30 mg/kg x 3 d, day 7 p.i.): 191176 RLU
RLU standardized by fecal weight (Normalized) ([9]; 30 mg/kg x 3 d, day 8 p.i.): 11969 RLU
RLU standardized by fecal weight (Normalized) ([9]; 30 mg/kg x 3 d, day 9 p.i.): 290 RLU
RLU standardized by fecal weight (Normalized) ([9]; 30 mg/kg x 3 d, day 10 p.i.): 51 RLU
RLU standardized by fecal weight (Normalized) ([9]; 30 mg/kg x 3 d, day 13 p.i.): 29 RLU
RLU standardized by fecal weight (Normalized) ([9]; 30 mg/kg x 3 d, day 15 p.i.): 21 RLU
RLU standardized by fecal weight (Normalized) ([9]; 30 mg/kg x 3 d, day 17 p.i.): 290 RLU
RLU standardized by fecal weight (Normalized) ([9]; 30 mg/kg x 3 d, day 20 p.i.): 23 RLU

CC(C)(CO)Cn1nc(-c2ccc3cc(OC4CC4)ccc3c2)c(C(N)=O)c1N [BKI-1708]
inhibition at 10 µM [10]: 24.3%
EC50 [11]: 0.4 µM
maximum tolerated single dose [12]: 400 mg/kg
efficacy ([9]; 8 mg/kg QD x 3): failed to recapitulate efficacy
log reduction in oocyst shedding ([9]; 15 mg/kg x 2 days, day 20 p.i.): 2.1 log
log reduction vs peak infection levels of untreated control ([9]; 60, 30 and 15 mg/kg QD x 3, up to 20 days p.i.): > 4 log
day p.i. oocyst shedding reached LoD ([9]; BKI-1708 15 mg/kg QD x 3 PO): ≤ 13 days
day p.i. oocyst shedding reached LoD ([9]; BKI-1708 30 mg/kg QD x 3 PO): ≤ 13 days
day p.i. oocyst shedding below LoD ([9]; BKI-1708 60 mg/kg QD x 3 PO): ≤ 10 days
log reduction in oocyst shedding ([9]; single 15 mg/kg dose, 13 days p.i.): 1.4 log
log reduction in oocyst shedding ([9]; single 15 mg/kg dose, 20 days p.i.): 1.7 log
log reduction in oocyst shedding ([9]; single 60 mg/kg dose, 13 days p.i.): 3.5 log
log reduction in oocyst shedding over untreated controls [13]: > 3 log
plasma level without appreciable effect on MAP, HR, contractility, SVR, CO, QT, QRS, PR [14]: 95 µM
Clinical scores [15]: 10.5
Weights, %∆ [15]: 6.329% and 8.511% and 5.263%
Weights, %∆, mean [15]: 6.701%
IVMN test result [16]: no change in the frequency of micronucleated cells
postnatal mortality (%) [17]: 0%
